Laboratory results reported in publication PMC7899551, “Phase 1 study of Z-endoxifen in patients with advanced gynecologic, desmoid, and hormone receptor-positive solid tumors” (Oncotarget, 2021).
Entries after “also recorded” stand apart in the source; their conditions may differ.

Test system: gynecologic tumors, desmoid tumors, hormone receptor-positive solid tumors
Experiment: Clinical outcome (RECIST 1.1 response, cycles on study)
Type: in vivo, human
Settings: for prolonged disease stabilization: desmoid
Method: This study enrolled patients ≥ 18 years of age with gynecological tumors, desmoid tumors, histologically-documented HR+ (ER+/PR+, ER+/PR-, or ER-/PR+) breast cancer, or other solid tumors that were ER+ or PR+ by immunohistochemistry (any positive expression). […] All other patients must have progressed on at least one line of standard-of-care therapy.
Eye examinations were performed at baseline, every six months while on study, and if clinically indicated. CT scans were performed at baseline, and tumor response was assessed every 2 cycles (8 weeks; every 16 weeks for patients on study for more than 12 months) based on the Response Evaluation Criteria in Solid Tumors (RECIST) version 1.1 [39]. A confirmatory scan was performed after at least 4 weeks to confirm objective response.

[1] = patient 7, fallopian tube cancer

In the case of CC/C(=C(\c1ccc(O)cc1)c1ccc(OCCNC)cc1)c1ccccc1 [Z-endoxifen], the “mean number of cycles completed” value (3 ER+/PR- breast cancer patients) is reported as 3.0 ± 2.6 cycles, the “mean number of cycles completed” value (6 ER+/PR+ breast cancer patients) is reported as 6.7 ± 4.4 cycles and the “disease stabilizations of ≥ 6 cycles” value (20 evaluable patients with gynecologic tumors (patients 20, 30, 31)) is reported as 3 patients. The partial responses (34 evaluable patients) was “Three patients had partial responses; also recorded: Three patients in this study experienced partial responses”, the “patients with stable disease ≥ 6 cycles” value (34 evaluable patients) was 8 patients and the “treatment cycles on study, average” value (34 evaluable patients) was 7.2 cycles. The “treatment cycles on study, median” value (34 evaluable patients) was 4 cycles, the “treatment cycles on study, range” value (34 evaluable patients) was 1–62 cycles and the “Clinical Benefit (partial response or stable disease for at least 6 cycles)” value (shortened to “Clinical Benefit”) (Breast cancer (n = 9)) was 4 patients. For the same molecule, the “CBR (partial response or stable disease ≥ 6 cycles)” value (DL1 to DL5, 20 to 140 mg daily, 3/16 patients) was 18.8%, the “CBR (partial response or stable disease ≥ 6 cycles)” value (DL6 to DL8, 200 to 360 mg daily, 8/18 patients) was 44.4% and the “Clinical Benefit” value (Desmoid (n = 4)) was 3 patients. The “mean cycles completed on study” value (ER+ breast cancer) was 5.1 ± 4.4 cycles, the “mean cycles on study” value (ER+ ovarian cancer, 4 patients) was 4.0 ± 4.0 cycles and the “Clinical Benefit” value (Fallopian tube cancer (n = 2)) was 1 patients. For the same molecule, the “Clinical Benefit” value (Granulosa cell ovarian (n = 2)) was 0 patients, the “Clinical Benefit” value (Ovarian cancer (n = 9)) was 2 patients and the “Clinical Benefit” value (Total of Supplementary Table 1 (endometrial patient 31 not included)) was 10 patients. For the same molecule, the “overall CBR (partial response or stable disease ≥ 6 cycles)” value (all dose levels) was 32.5%, the CBR (hormone receptor-positive breast cancer, 4/9 patients) was 44% and the clinical response [1] was “partial response”. The cycles on study [1] was 14 cycles, the clinical response (patient 23, desmoid fibromatosis, prior progression on tamoxifen) was “partial response” and the prolonged disease stabilization (patient 28 (DL7)) was 11 cycles. The stable disease duration (patient 31, endometrial cancer) was 7 cycles, the clinical response (patient 33 (DL8), breast cancer) was “partial response” and the prolonged disease stabilization (patient 35 (DL8), prior progression on tamoxifen) was 24 cycles. The stable disease duration (patients 3, 10, and 21 (DL1, DL3, DL6), breast cancer) was ≥ 6 cycles, the CBR (patients with desmoid tumors, 3/4 patients) was 75% and the CBR (patients with gynecologic malignancies, 4/20 patients) was 20%. The “mean cycles on study” value (undetermined ER status ovarian cancer, n = 5) was 2.0 ± 1.2 cycles.
